Experimental data reported in PubChem BioAssay AID236 (DTP/NCI, 2004).
Values joined by “and” are separate entries in the source; they are usually repeats but may differ in a detail not shown here. Equal values may be shown once. Inconclusive results and toxic doses are left out.

Tested on: AK4 lymphoid leukemia ip, C3AKF1 mice, survival
Test: NCI In Vivo Anticancer Drug Screen. Data for tumor model AK4 Lymphoid Leukemia (intraperitoneal) in C3AKF1 (CHKRF1) mice
Settings: endpoint: median survival time, higher = longer survival
Protocol: The antitumor activity of compounds was measured in mice bearing transplantable tumors. Survival or tumor size were measured and the results are expressed as the measurement made in the treated group (T) divided by the measurement made in the vehicle treated control group (C). The tumor model used in this assay is AK4 Lymphoid Leukemia (intraperitoneal) in C3AKF1 (CHKRF1) mice

[1] = dose: 1.25 mg/kg/injection, schedule: Q01DX010 (ip), vehicle: other
[2] = dose: 2.5 mg/kg/injection, schedule: Q01DX010 (ip), vehicle: other
[3] = dose: 5.0 mg/kg/injection, schedule: Q01DX010 (ip), vehicle: other
[4] = dose: 62.5 mg/kg/injection, schedule: Q01DX010 (ip), vehicle: saline
[5] = dose: 125.0 mg/kg/injection, schedule: Q01DX010 (ip), vehicle: saline
[6] = dose: 500.0 mg/kg/injection, schedule: Q01DX010 (ip), vehicle: saline
[7] = dose: 62.5 micrograms/kg/injection, schedule: Q01DX010 (ip), vehicle: saline

With `O=P1(N(CCCl)CCCl)NCCCO1` (stereo not drawn) the T/C (dose: 11.3 mg/kg/injection, schedule: Q01DX010 (ip), vehicle: saline) was 175 % of control, the T/C (dose: 11.3 mg/kg/injection, schedule: Q01DX Z (ip), vehicle: saline) was 180 % of control and 189 % of control and the T/C (dose: 22.5 mg/kg/injection, schedule: Q01DX010 (ip), vehicle: saline) was 170 % of control and 187 % of control. For the same compound, the T/C (dose: 22.5 mg/kg/injection, schedule: Q01DX Z (ip), vehicle: saline) was 202 % of control and 210 % of control, the T/C (dose: 45.0 mg/kg/injection, schedule: Q01DX010 (ip), vehicle: saline) was 220 % of control and 375 % of control and the T/C (dose: 45.0 mg/kg/injection, schedule: Q01DX Z (ip), vehicle: saline) was 196 % of control and 204 % of control. For the same compound, the T/C (dose: 90.0 mg/kg/injection, schedule: Q01DX010 (ip), vehicle: saline) was 105 % of control and 225 % of control, the T/C (dose: 90.0 mg/kg/injection, schedule: Q01DX Z (ip), vehicle: saline) was 151 % of control and 168 % of control and the T/C (dose: 180.0 mg/kg/injection, schedule: Q01DX010 (ip), vehicle: saline) was 105 % of control and 118 % of control. The T/C (dose: 180.0 mg/kg/injection, schedule: Q01DX Z (ip), vehicle: saline) was 113 % of control and 120 % of control.

For `Nc1nc(=S)c2ncn(C3OC(CO)C(O)C3O)c2[nH]1` (stereo not drawn), the T/C (dose: 2.0 mg/kg/injection, schedule: Q01DX010 (ip), vehicle: saline) was 117 % of control, the T/C (dose: 4.0 mg/kg/injection, schedule: Q01DX010 (ip), vehicle: saline) was 111 % of control and the T/C (dose: 8.0 mg/kg/injection, schedule: Q01DX010 (ip), vehicle: saline) was 117 % of control. For the same compound, the T/C (dose: 16.0 mg/kg/injection, schedule: Q01DX010 (ip), vehicle: saline) was 94 % of control.

For `CCC(=O)O[C@H]1CC[C@H]2[C@@H]3CCC4=CC(=O)CC[C@]4(C)[C@H]3CC[C@]12C`, the T/C (dose: 125.0 mg/kg/injection, schedule: Q01DX010 (sc), vehicle: steriod suspending solution) was 87 % of control, the T/C (dose: 250.0 mg/kg/injection, schedule: Q01DX010 (sc), vehicle: steriod suspending solution) was 87 % of control and the T/C (dose: 500.0 mg/kg/injection, schedule: Q01DX010 (sc), vehicle: steriod suspending solution) was 93 % of control. For the same compound, the T/C (dose: 1000.0 mg/kg/injection, schedule: Q01DX010 (sc), vehicle: steriod suspending solution) was 87 % of control.

With `CN(C)[C@@H]1C(=O)C(C(N)=O)=C(O)[C@@]2(O)C(=O)C3=C(O)c4c(O)cccc4C[C@H]3C[C@@H]12` the T/C (dose: 7.5 mg/kg/injection, schedule: Q01DX010 (ip), vehicle: saline) was 100 % of control, the T/C (dose: 15.0 mg/kg/injection, schedule: Q01DX010 (ip), vehicle: saline) was 100 % of control and 105 % of control and the T/C (dose: 30.0 mg/kg/injection, schedule: Q01DX010 (ip), vehicle: saline) was 100 % of control. For the same compound, the T/C (dose: 60.0 mg/kg/injection, schedule: Q01DX010 (ip), vehicle: saline) was 94 % of control.

`Nc1nc(N)c2nc(CNc3ccc(C(=O)NC(CCC(=O)O)C(=O)O)cc3)cnc2n1` (stereo not drawn) was tested, and the T/C (dose: 0.05 mg/kg/injection, schedule: Q01DX010 (ip), vehicle: other) was 120 % of control, the T/C (dose: 0.1 mg/kg/injection, schedule: Q01DX010 (ip), vehicle: other) was 160 % of control and 215 % of control and the T/C (dose: 0.2 mg/kg/injection, schedule: Q01DX010 (ip), vehicle: other) was 180 % of control and 300 % of control.

In the case of `Nc1nc(=S)c2[nH]cnc2[nH]1`, the T/C [1] is reported as 100 % of control and 114 % of control, the T/C [2] is reported as 93 % of control and 114 % of control and the T/C [3] is reported as 112 % of control. The T/C (dose: 10.0 mg/kg/injection, schedule: Q01DX010 (ip), vehicle: other) was 106 % of control.

`CCn1cnc2c(=S)nc[nH]c21` was tested, and the T/C (dose: 15.6 mg/kg/injection, schedule: Q01DX010 (ip), vehicle: saline) was 100 % of control, the T/C (dose: 31.3 mg/kg/injection, schedule: Q01DX010 (ip), vehicle: saline) was 88 % of control and the T/C [4] was 88 % of control. For the same compound, the T/C [5] was 105 % of control.

`CN[C@H]1CCc2cc(OC)c(OC)c(OC)c2-c2ccc(OC)c(=O)cc21` was tested, and the T/C (dose: 0.63 mg/kg/injection, schedule: Q01DX010 (ip), vehicle: other) was 95 % of control and 100 % of control, the T/C [1] was 95 % of control and 100 % of control and the T/C [2] was 90 % of control and 100 % of control. The T/C [3] was 100 % of control and 104 % of control.

In the case of `O=CN(O)CC(=O)O`, the T/C [4] is reported as 100 % of control and the T/C [6] is reported as 90 % of control.

`C[n+]1c2ccccc2nc2c(N)cc(N)cc21` was tested, and the T/C (dose: 12.0 mg/kg/injection, schedule: Q01DX010 (ip), vehicle: saline) was 106 % of control, the T/C (dose: 18.0 mg/kg/injection, schedule: Q01DX010 (ip), vehicle: saline) was 106 % of control and the T/C (dose: 27.0 mg/kg/injection, schedule: Q01DX010 (ip), vehicle: saline) was 100 % of control.

For `CC[C@]1(O)C[C@H]2CN(CCc3c([nH]c4ccccc34)[C@@](C(=O)OC)(c3cc4c(cc3OC)N(C=O)[C@H]3[C@@](O)(C(=O)OC)[C@H](OC(C)=O)[C@]5(CC)C=CCN6CC[C@]43[C@@H]65)C2)C1`, the T/C (dose: 0.03 mg/kg/injection, schedule: Q01DX010 (ip), vehicle: saline) was 100 % of control and 115 % of control, the T/C (dose: 0.03 mg/kg/injection, schedule: Q01DX Z (ip), vehicle: saline) was 96 % of control and 106 % of control and the T/C (dose: 0.06 mg/kg/injection, schedule: Q01DX010 (ip), vehicle: saline) was 90 % of control and 112 % of control. The T/C (dose: 0.06 mg/kg/injection, schedule: Q01DX Z (ip), vehicle: saline) was 96 % of control and 106 % of control, the T/C (dose: 0.12 mg/kg/injection, schedule: Q01DX Z (ip), vehicle: saline) was 102 % of control and 106 % of control and the T/C (dose: 0.25 mg/kg/injection, schedule: Q01DX010 (ip), vehicle: saline) was 115 % of control. For the same compound, the T/C (dose: 0.25 mg/kg/injection, schedule: Q01DX Z (ip), vehicle: saline) was 102 % of control and 120 % of control, the T/C (dose: 0.5 mg/kg/injection, schedule: Q01DX010 (ip), vehicle: saline) was 93 % of control and the T/C [7] was 112 % of control.

For `CS(=O)(=O)OCCC(=O)N1CCN(C(=O)CCOS(C)(=O)=O)CC1`, the T/C (dose: 12.5 mg/kg/injection, schedule: Q01DX010 (ip), vehicle: saline) was 94 % of control and 116 % of control, the T/C (dose: 25.0 mg/kg/injection, schedule: Q01DX010 (ip), vehicle: saline) was 116 % of control and the T/C (dose: 100.0 mg/kg/injection, schedule: Q01DX010 (ip), vehicle: saline) was 122 % of control.

`Oc1cc(CN(CCCl)CCCl)c(O)cc1CN(CCCl)CCCl` was tested, and the T/C (dose: 10.0 mg/kg/injection, schedule: Q01DX010 (ip), vehicle: saline) was 100 % of control.

In the case of `C[C@]12C=CC(=O)C=C1CC[C@@H]1[C@@H]2C(=O)C[C@@]2(C)[C@H]1CC[C@]2(O)C(=O)CO`, the T/C (dose: 6.25 mg/kg/injection, schedule: Q01DX010 (sc), vehicle: steriod suspending solution) is reported as 100 % of control, the T/C (dose: 12.5 mg/kg/injection, schedule: Q01DX010 (sc), vehicle: steriod suspending solution) is reported as 100 % of control and 87 % of control and the T/C (dose: 12.5 mg/kg/injection, schedule: Q01DX Z (sc), vehicle: steriod suspending solution) is reported as 93 % of control. For the same compound, the T/C (dose: 25.0 mg/kg/injection, schedule: Q01DX010 (sc), vehicle: steriod suspending solution) was 100 % of control and 87 % of control, the T/C (dose: 25.0 mg/kg/injection, schedule: Q01DX Z (sc), vehicle: steriod suspending solution) was 93 % of control and the T/C (dose: 50.0 mg/kg/injection, schedule: Q01DX010 (sc), vehicle: steriod suspending solution) was 90 % of control and 100 % of control (2×). For the same compound, the T/C (dose: 50.0 mg/kg/injection, schedule: Q01DX Z (sc), vehicle: steriod suspending solution) was 96 % of control and 100 % of control, the T/C (dose: 100.0 mg/kg/injection, schedule: Q01DX010 (sc), vehicle: steriod suspending solution) was 90 % of control and 118 % of control and the T/C (dose: 100.0 mg/kg/injection, schedule: Q01DX Z (sc), vehicle: steriod suspending solution) was 96 % of control. For the same compound, the T/C (dose: 200.0 mg/kg/injection, schedule: Q01DX010 (sc), vehicle: steriod suspending solution) was 105 % of control and 118 % of control and the T/C (dose: 200.0 mg/kg/injection, schedule: Q01DX Z (sc), vehicle: steriod suspending solution) was 96 % of control and 120 % of control.

For `N#Cc1cn(C2OC(CO)C(O)C2O)c2ncnc(N)c12` (stereo not drawn), the T/C (dose: 31.3 micrograms/kg/injection, schedule: Q01DX010 (ip), vehicle: saline) was 100 % of control, the T/C [7] was 100 % of control and the T/C (dose: 125.0 micrograms/kg/injection, schedule: Q01DX010 (ip), vehicle: saline) was 118 % of control. The T/C (dose: 250.0 micrograms/kg/injection, schedule: Q01DX010 (ip), vehicle: saline) was 100 % of control.

`CCN(CC)C(=S)S` was tested, and the T/C [5] was 87 % of control, the T/C (dose: 250.0 mg/kg/injection, schedule: Q01DX010 (ip), vehicle: saline) was 87 % of control and the T/C [6] was 87 % of control. The T/C (dose: 1000.0 mg/kg/injection, schedule: Q01DX010 (ip), vehicle: saline) was 93 % of control.

With `NC(=O)c1ccc(NC(=O)CCC(=O)Nc2ccc(C(N)=O)cn2)nc1` the T/C (dose: 0.63 mg/kg/injection, schedule: Q01DX010 (ip), vehicle: saline) was 100 % of control, the T/C (dose: 1.25 mg/kg/injection, schedule: Q01DX010 (ip), vehicle: saline) was 110 % of control and the T/C (dose: 2.5 mg/kg/injection, schedule: Q01DX010 (ip), vehicle: saline) was 110 % of control. The T/C (dose: 5.0 mg/kg/injection, schedule: Q01DX010 (ip), vehicle: saline) was 100 % of control.
